The text below walks through data of ChEMBL document CHEMBL5036301, “Heteroaryl ether analogues of an antileishmanial 7-substituted 2-nitroimidazooxazine lead afford attenuated hERG risk: In vitro and in vivo appraisal” (Eur J Med Chem, 2021).

The test system of data set [1] is Leishmania donovani. Nature of the data set: Antileishmanial activity against Leishmania donovani amastigotes infected in BALB/C mouse assessed as reduction in parasite burden in liver tissue at 12.5 mg/kg, po administered once per day for 5 days relative to control. It is filed as functional. The note with it: 120 h, time 5 day.
For data set [2], the system named is Leishmania donovani. In words: Antileishmanial activity against Leishmania donovani amastigotes infected in BALB/C mouse assessed as reduction in parasite burden in liver tissue at 6.25 mg/kg, po administered once per day for 5 days relative to control. It is filed as functional. The settings on record: 120 h, time 5 day.
Data set [3] concerns Leishmania infantum. In words: Antileishmanial activity against Leishmania infantum amastigotes infected in golden hamster assessed as reduction in parasite load in liver tissue at 50 mg/kg, po administered once daily for 5 days relative to control. It is filed as functional. The note with it: 120 h, time 5 day.
The subject of data set [4] is Leishmania infantum. Nature of the data set: Antileishmanial activity against Leishmania infantum amastigotes infected in golden hamster assessed as reduction in parasite load in spleen tissue at 50 mg/kg, po administered once daily for 5 days relative to control. It is filed as functional. The settings on record: 120 h, time 5 day.
The test system of data set [5] is Leishmania infantum. Nature of the data set: Antileishmanial activity against Leishmania infantum amastigotes infected in golden hamster assessed as reduction in parasite load in bone marrow tissue at 50 mg/kg, po administered once daily for 5 days relative to control. The settings on record: 120 h, time 5 day. It is filed as functional.
The subject of data set [6] is Leishmania donovani. In words: Antileishmanial activity against Leishmania donovani amastigotes infected in mouse J774A.1 cells incubated for 72 hrs by luciferase assay. It is filed as functional, organism-based. The note with it: J774.A1, 72 h.
Data set [7] has as its system Leishmania infantum. In words: Antileishmanial activity against Leishmania infantum MHOM/MA(BE)/67 amastigotes infected in macrophages assessed as reduction in parasite burden by giemsa staining based microscopic analysis. The format is functional, organism-based.
For another data set, the system named is Trypanosoma cruzi. In words: Antitrypanosomal activity against Trypanosoma cruzi Tulahuen CL2 infected in human MRC-5 cells assessed as parasite growth. The settings on record: Tulahuen CL2, MRC5. It is filed as functional, organism-based.
The next data set relates to MRC5. In words: Cytotoxicity against human MRC5 cells assessed as cell viability after 72 hrs by fluorimetric analysis. The note with it: MRC5, 72 h. The format is ADME, cell-based.
Data set [8] is described as follows: Kinetic solubility of compound in water at pH7 by HPLC analysis. The note with it: pH 7.
In the next data set the target is hERG (KCNH2) (Homo sapiens, UniProt Q12809). In words: Inhibition of human ERG expressed in HEK293 cells at 10 uM relative to control. The settings on record: HEK293 cells expressing human ERG. The format is cell-based.
Data set [9] can be described thus: Selectivity index, ratio IC50 for cytotoxicity against human MRC5 cells to IC50 for antileishmanial activity against Leishmania infantum MHOM/MA(BE)/67 amastigotes infected in macrophages.
The nature of data set [10]: Stability of compound in human liver microsomes assessed as percentage of parent compound remaining at 1 uM measured after 1 hr.
The nature of data set [11]: Stability of compound in CD-1 mouse liver microsomes assessed as percentage of parent compound remaining at 1 uM measured after 1 hr.
Data set [12] can be described thus: Stability of compound in hamster liver microsomes assessed as percentage of parent compound remaining at 1 uM measured after 1 hr. The note with it: chinese hamster.
Data set [13] has as its system Leishmania donovani. In words: Antileishmanial activity against Leishmania donovani amastigotes infected in BALB/C mouse assessed as reduction in parasite burden in liver tissue at 50 mg/kg, po administered once per day for 5 days relative to control. It is filed as functional. The note with it: 120 h, time 5 day.
The test system of data set [14] is Mycobacterium tuberculosis. In words: Antitubercular activity against Mycobacterium tuberculosis H37Rv assessed as reduction in microbial growth under aerobic condition by luminescence analysis. The format is functional.
For data set [15], the system named is Mycobacterium tuberculosis. In words: Antitubercular activity against Mycobacterium tuberculosis H37Rv assessed as reduction in microbial growth under anaerobic condition by luminescence analysis. It is filed as functional.
A short description of data set [16]: Initial plasma concentration in mouse at 1 mg/kg, iv measured upto 24 hrs LC-MS/MS analysis.
Data set [17] can be described thus: Clearance in mouse at 1 mg/kg, iv measured upto 24 hrs LC-MS/MS analysis. The note with it: in vivo.
Data set [18] is described as follows: Volume of distribution at steady state in mouse at 1 mg/kg, iv measured upto 24 hrs LC-MS/MS analysis. The note with it: in vivo.
Data set [19] in a line: Half life in mouse at 1 mg/kg, iv measured upto 24 hrs LC-MS/MS analysis. The settings on record: in vivo.
A short description of data set [20]: AUClast in mouse at 1 mg/kg, iv measured upto 24 hrs LC-MS/MS analysis. The settings on record: in vivo.
Data set [21] is described as follows: AUClast in mouse at 25 mg/kg, po measured upto 24 hrs LC-MS/MS analysis. The note with it: in vivo.
Data set [22] is described as follows: in vivo. The note with it: mouse, po, 25 mg/kg.
Data set [23] can be described thus: in vivo. The settings on record: mouse, po, 25 mg/kg. This is another data set of the same source.
A short description of data set [24]: in vivo. The settings on record: mouse, po, 25 mg/kg. The source holds these as a separate data set.

≈ marks a conversion by molar mass, not a printed value. Some results are limits rather than exact numbers.

Sequence of hERG (KCNH2) (Q12809 whole entry): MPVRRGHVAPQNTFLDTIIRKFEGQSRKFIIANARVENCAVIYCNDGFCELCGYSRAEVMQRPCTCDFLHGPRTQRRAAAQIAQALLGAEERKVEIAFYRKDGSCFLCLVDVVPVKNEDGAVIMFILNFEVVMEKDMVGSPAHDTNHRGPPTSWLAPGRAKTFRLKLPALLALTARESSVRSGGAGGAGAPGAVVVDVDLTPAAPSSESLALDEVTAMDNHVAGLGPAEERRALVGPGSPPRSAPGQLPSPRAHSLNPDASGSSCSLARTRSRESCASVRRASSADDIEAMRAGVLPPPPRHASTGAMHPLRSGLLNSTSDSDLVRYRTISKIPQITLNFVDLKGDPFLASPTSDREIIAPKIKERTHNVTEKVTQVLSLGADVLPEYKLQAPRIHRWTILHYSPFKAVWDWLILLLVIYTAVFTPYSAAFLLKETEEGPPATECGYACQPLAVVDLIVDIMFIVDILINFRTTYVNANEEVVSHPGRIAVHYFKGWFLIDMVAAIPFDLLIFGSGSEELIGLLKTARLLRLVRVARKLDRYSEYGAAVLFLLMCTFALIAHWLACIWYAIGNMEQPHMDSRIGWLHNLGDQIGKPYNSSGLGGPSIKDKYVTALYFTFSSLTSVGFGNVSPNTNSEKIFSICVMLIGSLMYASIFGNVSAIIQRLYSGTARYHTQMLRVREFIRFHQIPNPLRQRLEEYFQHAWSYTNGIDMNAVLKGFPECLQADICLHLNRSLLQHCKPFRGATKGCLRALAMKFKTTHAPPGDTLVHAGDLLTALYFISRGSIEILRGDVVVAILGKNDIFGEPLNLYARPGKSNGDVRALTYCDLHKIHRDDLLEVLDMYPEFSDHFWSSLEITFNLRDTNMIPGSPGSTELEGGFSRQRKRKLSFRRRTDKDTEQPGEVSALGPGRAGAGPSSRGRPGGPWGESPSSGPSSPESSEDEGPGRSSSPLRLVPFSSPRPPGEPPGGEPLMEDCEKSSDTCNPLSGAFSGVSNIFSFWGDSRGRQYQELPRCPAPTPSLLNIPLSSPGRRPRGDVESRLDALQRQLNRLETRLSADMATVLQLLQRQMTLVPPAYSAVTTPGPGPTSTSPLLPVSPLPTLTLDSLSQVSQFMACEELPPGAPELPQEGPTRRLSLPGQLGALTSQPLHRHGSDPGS

Consider `C[C@]1(COc2ccc(OC(F)(F)F)cc2)Cn2cc([N+](=O)[O-])nc2O1`, for which the inhibition in vivo at 12.5 mg/kg in the data set with Leishmania donovani [1] was above 99%. In the data set on Leishmania donovani [2], the inhibition in vivo at 6.25 mg/kg is above 99%.

Turning to `CC1(COc2ccc(OC(F)(F)F)cc2)CCn2cc([N+](=O)[O-])nc2O1` (stereo not given), the inhibition in vivo at 12.5 mg/kg in the data set on Leishmania donovani [1] is above 99%. Moreover, the inhibition in vivo at 50 mg/kg in the data set on Leishmania infantum [3] came out at 100%; in the data set with Leishmania infantum [4] it was 99.7%; in the data set with Leishmania infantum [5], 99.5%.

As to `O=[N+]([O-])c1cn2c(n1)OC(COc1ccc(Cl)cn1)CC2` (stereo not given), the IC50 in the data set on Leishmania donovani [6] is 100 nM; with Leishmania infantum [7], above 64000 nM; in the data set on Trypanosoma cruzi it was 940 nM; in the data set on MRC5, above 64000 nM. In data set [8], this molecule had a solubility (kinetic) of 18 µg/mL (≈ 57.9 µM). At hERG (KCNH2), this molecule came in with an inhibition at 10 µM of 17%.

Consider `CC1(COc2cnc(C(F)(F)F)cn2)CCn2cc([N+](=O)[O-])nc2O1` (stereo not given), for which the values for the IC50 in the data set on Leishmania infantum [7], in the data set on Trypanosoma cruzi and with MRC5 were 2200 nM, 940 nM and above 64000 nM, respectively. Besides, the selectivity ratio in data set [9] was above 29. Further, the solubility (kinetic) in [8] was found to be 17 µg/mL (≈ 47.3 µM). Also, the figures for the share remaining at 1 h, 1 µM in data set [10], in data set [11] and in data set [12] were 91%, 90% and 36%, respectively. Moreover, in the data set with Leishmania donovani [13], the inhibition in vivo at 50 mg/kg was 17%.

On to `CC1(COc2ncc(C(F)(F)F)cc2Cl)CCn2cc([N+](=O)[O-])nc2O1` (stereo not given), for which the results for the IC50 in the data set with Leishmania infantum [7], in the data set on Trypanosoma cruzi and with MRC5 were 260 nM, 290 nM and above 64000 nM, respectively. The selectivity ratio in [9] is above 246. Moreover, the kinetic solubility in [8] was found to be 11 µg/mL (≈ 28 µM). Also, the figures for the share remaining at 1 h, 1 µM in data set [10], in [11] and in data set [12] were 23%, 14% and 0%, respectively. Moreover, the inhibition in vivo at 50 mg/kg with Leishmania donovani [13] amounted to 0%.

In the case of `CC1(COc2ccc(C(F)(F)F)nn2)CCn2cc([N+](=O)[O-])nc2O1` (stereo not given), the IC50 was above 64000 nM in the data set on Leishmania infantum [7], 3800 nM with Trypanosoma cruzi and above 64000 nM in the data set on MRC5. Besides, the solubility (kinetic) in data set [8] came out at 10 µg/mL (≈ 27.8 µM). Besides, the amount remaining at 1 h, 1 µM in [10] was 90%; in [11], 89%; in data set [12], 58%. The inhibition in vivo at 50 mg/kg in the data set with Leishmania donovani [13] came out at 0%.

Regarding `CC1(COc2ccc(Cl)cn2)CCn2cc([N+](=O)[O-])nc2O1` (stereo not given), the IC50 was 150 nM with Leishmania donovani [6], 380 nM in the data set with Leishmania infantum [7], 630 nM in the data set with Trypanosoma cruzi and above 64000 nM in the data set with MRC5. Also, the results for the MIC in [14] and in [15] were 2 µM and 8.7 µM, respectively. Further, in data set [8], the solubility (kinetic) stood at 23 µg/mL (≈ 70.8 µM). Further, the inhibition in vivo at 50 mg/kg with Leishmania donovani [13] was determined as 14%. In data set [16], this molecule yielded a C0 at 24 h of 2600 ng/mL. The clearance at 24 h in data set [17] came out at 8.3 mL/min/kg. The Vd at 24 h in data set [18] was 0.5 L/kg. Also, the half-life at 24 h in data set [19] is 39 min. The AUC(0-t) at 24 h stood at 2010 ng·h/mL in [20] and 57800 ng·h/mL in data set [21]. Moreover, the Cmax at 24 h in the data set “in vivo [22]” came out at 11000 ng/mL. In “in vivo [23]”, the Tmax at 24 h came out at 60 min. Moreover, in the data set “in vivo [24]”, the bioavailability at 24 h was 100%.
